Tests used:
[1] = target: GDP-bound NRAS wild-type protein (Homo sapiens, UniProt P01111); test: Binding to NRAS by surface plasmon resonance (SPR), Single Cycle Kinetics; details: SPR; KD ratio class
[2] = target: GDP-bound HRAS wild-type protein (Homo sapiens, UniProt P01112); test: Binding to HRAS by surface plasmon resonance (SPR), Single Cycle Kinetics; details: SPR; KD ratio class
GDP-bound HRAS wild-type protein, sequence (P01112 whole entry): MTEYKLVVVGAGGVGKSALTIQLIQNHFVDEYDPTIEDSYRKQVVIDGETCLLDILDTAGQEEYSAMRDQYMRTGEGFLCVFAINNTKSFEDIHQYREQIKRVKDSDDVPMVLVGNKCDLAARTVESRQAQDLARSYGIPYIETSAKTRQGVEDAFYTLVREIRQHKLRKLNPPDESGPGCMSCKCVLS

GDP-bound NRAS wild-type protein, sequence (P01111 whole entry): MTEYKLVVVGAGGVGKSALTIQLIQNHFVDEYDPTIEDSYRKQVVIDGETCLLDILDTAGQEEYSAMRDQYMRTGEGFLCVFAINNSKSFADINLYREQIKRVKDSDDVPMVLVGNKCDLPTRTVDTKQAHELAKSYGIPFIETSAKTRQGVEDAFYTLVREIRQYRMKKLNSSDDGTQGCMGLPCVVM

| Structure (SMILES) | NRAS/KRAS (ratio of KD value for GDP-bound NRAS wild-type protein to KD value for KRAS) [1] | HRAS/KRAS (ratio of KD value for GDP-bound HRAS wild-type protein to KD value for KRAS) [2] |
| --- | --- | --- |
| CCC[C@H]1C(=O)N[C@@H]([C@@H](C)CC)C(=O)N(C)CC(=O)N(C)[C@H]2C/C=C\CCN(C2=O)[C@@H](Cc2ccc(C(F)(F)F)cc2)C(=O)N(C)CC(=O)N[C@@H](CCc2cc(F)c(C(F)(F)F)c(F)c2)C(=O)N2C[C@H](OCC)C[C@H]2C(=O)NC2(CCC2)C(=O)N(C)[C@@H](C2CCCC2)C(=O)N(C)[C@H](C(=O)N2CC3CCC(C2)O3)CC(=O)N1C [PP1315] | AA (a compound having 20 or more is denoted as AA) | A (a compound having 10 or more and less than 20 is denoted as A) |
| CCO[C@@H]1C[C@H]2C(=O)NC3(CCC3)C(=O)N(C)[C@@H](C3CCCC3)C(=O)N(C)[C@H](C(=O)N(C)CCOC)CC(=O)N(C)[C@@H](CC)C(=O)N[C@@H]([C@@H](C)CC)C(=O)N(C)CC(=O)N(C)[C@H]3C/C=C\CCN(C3=O)[C@@H](Cc3ccc(C(F)(F)F)cc3)C(=O)N(C)CC(=O)N[C@@H](CCc3cc(F)c(C(F)(F)F)c(F)c3)C(=O)N2C1 [PP1316] | A (a compound having 10 or more and less than 20 is denoted as A) | A (a compound having 10 or more and less than 20 is denoted as A) |
| CCO[C@@H]1C[C@H]2C(=O)NC3(CCC3)C(=O)N(C)[C@@H](C3CCCC3)C(=O)N(C)[C@H](C(=O)N(C)CCOC)CC(=O)N(C)[C@@H](CC(C)C)C(=O)N[C@@H]([C@@H](C)CC)C(=O)N(C)CC(=O)N(C)[C@H]3C/C=C\CCN(C3=O)[C@@H](Cc3ccc(C(F)(F)F)cc3)C(=O)N(C)CC(=O)N[C@@H](CCc3cc(F)c(C(F)(F)F)c(F)c3)C(=O)N2C1 [PP1317] | A (a compound having 10 or more and less than 20 is denoted as A) | B (a compound having 3 or more and less than 10 is denoted as B) |
| CCO[C@@H]1C[C@H]2C(=O)NC3(CCC3)C(=O)N(C)[C@@H](C3CCCC3)C(=O)N(C)[C@H](C(=O)N(C)CCOC)CC(=O)N(C)[C@@H](CC3CC3)C(=O)N[C@@H]([C@@H](C)CC)C(=O)N(C)CC(=O)N(C)[C@H]3C/C=C\CCN(C3=O)[C@@H](Cc3ccc(C(F)(F)F)cc3)C(=O)N(C)CC(=O)N[C@@H](CCc3cc(F)c(C(F)(F)F)c(F)c3)C(=O)N2C1 [PP1318] | A (a compound having 10 or more and less than 20 is denoted as A) | A (a compound having 10 or more and less than 20 is denoted as A) |
| CCO[C@@H]1C[C@H]2C(=O)NC3(CCC3)C(=O)N(C)[C@@H](C3CCCC3)C(=O)N(C)[C@H](C(=O)N(C)CCOC)CC(=O)N(C)[C@@H](C)C(=O)N[C@@H]([C@@H](C)CC)C(=O)N(C)CC(=O)N(C)[C@H]3C/C=C\CCN(C3=O)[C@@H](Cc3ccc(C(F)(F)F)cc3)C(=O)N(C)CC(=O)N[C@@H](CCc3cc(F)c(C(F)(F)F)c(F)c3)C(=O)N2C1 [PP1319] | A (a compound having 10 or more and less than 20 is denoted as A) | B (a compound having 3 or more and less than 10 is denoted as B) |
| CCO[C@@H]1C[C@H]2C(=O)NC3(CCC3)C(=O)N(C)[C@@H](C3CCCC3)C(=O)N(C)[C@H](C(=O)N(C)CCOC)CC(=O)N(C)[C@@H](CC(F)F)C(=O)N[C@@H]([C@@H](C)CC)C(=O)N(C)CC(=O)N(C)[C@H]3C/C=C\CCN(C3=O)[C@@H](Cc3ccc(C(F)(F)F)cc3)C(=O)N(C)CC(=O)N[C@@H](CCc3cc(F)c(C(F)(F)F)c(F)c3)C(=O)N2C1 [PP1320] | A (a compound having 10 or more and less than 20 is denoted as A) | A (a compound having 10 or more and less than 20 is denoted as A) |
| CCO[C@@H]1C[C@H]2C(=O)NC3(CCC3)C(=O)N(C)[C@@H](C3CCCC3)C(=O)N(C)[C@H](C(=O)N(C)CCOC)CC(=O)N(C)[C@@H](CC)C(=O)N[C@@H]([C@@H](C)CC)C(=O)N(C)CC(=O)N(C)[C@H]3C/C=C\CCN(C3=O)[C@@H](Cc3ccc(C(F)(F)F)cc3)C(=O)N(C)CC(=O)N[C@@H](CCc3ccc(C(F)(F)F)c(OC)c3)C(=O)N2C1 [PP1321] | A (a compound having 10 or more and less than 20 is denoted as A) | B (a compound having 3 or more and less than 10 is denoted as B) |
| CCO[C@@H]1C[C@H]2C(=O)NC3(CCC3)C(=O)N(C)[C@@H](C3CCCC3)C(=O)N(C)[C@H](C(=O)N(C)CCOC)CC(=O)N(C)[C@@H](CC)C(=O)N[C@@H]([C@@H](C)CC)C(=O)N(C)CC(=O)N(C)[C@H]3C/C=C\CCN(C3=O)[C@@H](Cc3ccc(C(F)(F)F)cc3)C(=O)N(C)CC(=O)N[C@@H](CCc3ccc4sccc4c3)C(=O)N2C1 [PP1322] | A (a compound having 10 or more and less than 20 is denoted as A) | A (a compound having 10 or more and less than 20 is denoted as A) |
| CCO[C@@H]1C[C@H]2C(=O)NC3(CCC3)C(=O)N(C)[C@@H](C3CCCC3)C(=O)N(C)[C@H](C(=O)N(C)CCOC)CC(=O)N(C)[C@@H](CC(C)C)C(=O)N[C@@H]([C@@H](C)CC)C(=O)N(C)CC(=O)N(C)[C@H]3C/C=C\CCN(C3=O)[C@@H](Cc3ccc(C(F)(F)F)cc3)C(=O)N(C)CC(=O)N[C@@H](CCc3ccc(C(F)(F)F)c(OC)c3)C(=O)N2C1 [PP1324] | A (a compound having 10 or more and less than 20 is denoted as A) | A (a compound having 10 or more and less than 20 is denoted as A) |
| CCO[C@@H]1C[C@H]2C(=O)NC3(CCC3)C(=O)N(C)[C@@H](C3CCCC3)C(=O)N(C)[C@H](C(=O)N(C)CCOC)CC(=O)N(C)[C@@H](CC(C)C)C(=O)N[C@@H]([C@@H](C)CC)C(=O)N(C)CC(=O)N(C)[C@H]3C/C=C\CCN(C3=O)[C@@H](Cc3ccc(C(F)(F)F)cc3)C(=O)N(C)CC(=O)N[C@@H](CCc3ccc4sccc4c3)C(=O)N2C1 [PP1325] | A (a compound having 10 or more and less than 20 is denoted as A) | A (a compound having 10 or more and less than 20 is denoted as A) |
| CCO[C@@H]1C[C@H]2C(=O)NC3(CCC3)C(=O)N(C)[C@@H](C3CCCC3)C(=O)N(C)[C@H](C(=O)N(C)CCOC)CC(=O)N(C)[C@@H](CC(C)C)C(=O)N[C@@H]([C@@H](C)CC)C(=O)N(C)CC(=O)N(C)[C@H]3C/C=C\CCN(C3=O)[C@@H](Cc3ccc(C(F)(F)F)cc3)C(=O)N(C)CC(=O)N[C@@H](CCc3ccc(Cl)c(Cl)c3)C(=O)N2C1 [PP1326] | AA (a compound having 20 or more is denoted as AA) | A (a compound having 10 or more and less than 20 is denoted as A) |
| CCO[C@@H]1C[C@H]2C(=O)NC3(CCC3)C(=O)N(C)[C@@H](C3CCCC3)C(=O)N(C)[C@H](C(=O)N(C)CCOC)CC(=O)N(C)[C@@H](CC3CC3)C(=O)N[C@@H]([C@@H](C)CC)C(=O)N(C)CC(=O)N(C)[C@H]3C/C=C\CCN(C3=O)[C@@H](Cc3ccc(C(F)(F)F)cc3)C(=O)N(C)CC(=O)N[C@@H](CCc3ccc(C(F)(F)F)c(OC)c3)C(=O)N2C1 [PP1327] | A (a compound having 10 or more and less than 20 is denoted as A) | A (a compound having 10 or more and less than 20 is denoted as A) |
| CCO[C@@H]1C[C@H]2C(=O)NC3(CCC3)C(=O)N(C)[C@@H](C3CCCC3)C(=O)N(C)[C@H](C(=O)N(C)CCOC)CC(=O)N(C)[C@@H](CC3CC3)C(=O)N[C@@H]([C@@H](C)CC)C(=O)N(C)CC(=O)N(C)[C@H]3C/C=C\CCN(C3=O)[C@@H](Cc3ccc(C(F)(F)F)cc3)C(=O)N(C)CC(=O)N[C@@H](CCc3ccc4sccc4c3)C(=O)N2C1 [PP1328] | A (a compound having 10 or more and less than 20 is denoted as A) | A (a compound having 10 or more and less than 20 is denoted as A) |
| CCO[C@@H]1C[C@H]2C(=O)NC3(CCC3)C(=O)N(C)[C@@H](C3CCCC3)C(=O)N(C)[C@H](C(=O)N(C)CCOC)CC(=O)N(C)[C@@H](CC3CC3)C(=O)N[C@@H]([C@@H](C)CC)C(=O)N(C)CC(=O)N(C)[C@H]3C/C=C\CCN(C3=O)[C@@H](Cc3ccc(C(F)(F)F)cc3)C(=O)N(C)CC(=O)N[C@@H](CCc3ccc(Cl)c(Cl)c3)C(=O)N2C1 [PP1329] | AA (a compound having 20 or more is denoted as AA) | A (a compound having 10 or more and less than 20 is denoted as A) |
| CCO[C@@H]1C[C@H]2C(=O)NC3(CCC3)C(=O)N(C)[C@@H](C(CC)CC)C(=O)N(C)[C@H](C(=O)N(C)CCOC)CC(=O)N(C)[C@@H](CC)C(=O)N[C@@H]([C@@H](C)CC)C(=O)N(C)CC(=O)N(C)[C@H]3C/C=C\CCN(C3=O)[C@@H](Cc3ccc(C(F)(F)F)cc3)C(=O)N(C)CC(=O)N[C@@H](CCc3cc(F)c(C(F)(F)F)c(F)c3)C(=O)N2C1 [PP1330] | AA (a compound having 20 or more is denoted as AA) | A (a compound having 10 or more and less than 20 is denoted as A) |
| CCC[C@H]1C(=O)N[C@@H]([C@@H](C)CC)C(=O)N(C)CC(=O)N(C)[C@H]2C/C=C\CCN(C2=O)[C@@H](Cc2ccc(C(F)(F)F)cc2)C(=O)N(C)CC(=O)N[C@@H](CCc2cc(F)c(C(F)(F)F)c(F)c2)C(=O)N2C[C@H](OCC)C[C@H]2C(=O)NC2(CCC2)C(=O)N(C)[C@@H](C2CCCC2)C(=O)N(C)[C@H](C(=O)N(C)CCOC)CC(=O)N1C [PP1331] | A (a compound having 10 or more and less than 20 is denoted as A) | A (a compound having 10 or more and less than 20 is denoted as A) |

— patent US20250230193A1, “CYCLIC COMPOUND HAVING SELECTIVE KRAS INHIBITORY EFFECT ON HRAS AND NRAS” (CHUGAI SEIYAKU KABUSHIKI KAISHA, priority 2022, published 2025)
